Experimental data taken from patent US20240382521A1, “METHODS OF ENGINEERING IMMUNE CELLS HAVING REDUCED FRATRICIDAL ACTIVITY” (Baylor College of Medicine, priority 2021, published 2024).

How the values were obtained:
CYP3A = conditions: cited from earlier work
CD5 CAR T-cells = experiment: Expansion of CD5 CAR T-cells in the presence of kinase inhibitors; format: cell-based, human; conditions: for frequencies of minimally differentiated, naïve-like T-cells (differentiation of CD5 CAR T-cells): inhibitor added on day of viral transduction, replenished every 2-3 days, vs control CD5 CAR T-cells expanded in the absence of inhibitors, FIG. 1A
From the text: Pazopanib and gefitinib had less impact on the differentiation of CD5 CAR T-cells. […] No such effect was observed upon expansion of control non-transduced T-cells in the presence of the same inhibitors, indicating the effect is CAR-specific.

| SMILES | metabolism in the liver by the CYP3A (CYP3A) | frequencies of minimally differentiated, naïve-like T-cells (differentiation of CD5 CAR T-cells) (CD5 CAR T-cells) | CD5 CAR T-cell expansion (CD5 CAR T-cells; in presence of inhibitor, compared with non-transduced control T-cells, FIG. 1B) |
| --- | --- | --- | --- |
| Cc1nc(Nc2ncc(C(=O)Nc3c(C)cccc3Cl)s2)cc(N2CCN(CCO)CC2)n1 [dasatinib] | extensive metabolism | – | – |
| COc1cc2ncnc(Nc3ccc(F)c(Cl)c3)c2cc1OCCCN1CCOCC1 [gefitinib] | – | less impact | – |
| CC(C)(C)n1nc(-c2ccc(Cl)cc2)c2c(N)ncnc21 [pp2] | – | higher frequencies | promoted robust CD5 CAR T-cell expansion |
